Measurements as given in ChEMBL document CHEMBL1156023, “Grassystatins A-C from marine cyanobacteria, potent cathepsin E inhibitors that reduce antigen presentation” (J Med Chem, 2009).
Square brackets hold non-standard residues; d marks the D form. Peptide text beside a SMILES is read from it. Hmp(2R,3S) = CC[C@H](C)[C@@H](O)C(=O)O; Sta = CC(C)C[C@H](N)[C@@H](O)CC(=O)O; dNMeF = CN[C@H](Cc1ccccc1)C(=O)O; NMeQ = CN[C@@H](CCC(N)=O)C(=O)O

Experiments:
[1] = target: Disintegrin and metalloproteinase domain-containing protein 9 (Homo sapiens, UniProt Q13443); assay: Inhibition of ADAM9
Sequence of Disintegrin and metalloproteinase domain-containing protein 9 (Q13443 whole entry, the tested form may be a part): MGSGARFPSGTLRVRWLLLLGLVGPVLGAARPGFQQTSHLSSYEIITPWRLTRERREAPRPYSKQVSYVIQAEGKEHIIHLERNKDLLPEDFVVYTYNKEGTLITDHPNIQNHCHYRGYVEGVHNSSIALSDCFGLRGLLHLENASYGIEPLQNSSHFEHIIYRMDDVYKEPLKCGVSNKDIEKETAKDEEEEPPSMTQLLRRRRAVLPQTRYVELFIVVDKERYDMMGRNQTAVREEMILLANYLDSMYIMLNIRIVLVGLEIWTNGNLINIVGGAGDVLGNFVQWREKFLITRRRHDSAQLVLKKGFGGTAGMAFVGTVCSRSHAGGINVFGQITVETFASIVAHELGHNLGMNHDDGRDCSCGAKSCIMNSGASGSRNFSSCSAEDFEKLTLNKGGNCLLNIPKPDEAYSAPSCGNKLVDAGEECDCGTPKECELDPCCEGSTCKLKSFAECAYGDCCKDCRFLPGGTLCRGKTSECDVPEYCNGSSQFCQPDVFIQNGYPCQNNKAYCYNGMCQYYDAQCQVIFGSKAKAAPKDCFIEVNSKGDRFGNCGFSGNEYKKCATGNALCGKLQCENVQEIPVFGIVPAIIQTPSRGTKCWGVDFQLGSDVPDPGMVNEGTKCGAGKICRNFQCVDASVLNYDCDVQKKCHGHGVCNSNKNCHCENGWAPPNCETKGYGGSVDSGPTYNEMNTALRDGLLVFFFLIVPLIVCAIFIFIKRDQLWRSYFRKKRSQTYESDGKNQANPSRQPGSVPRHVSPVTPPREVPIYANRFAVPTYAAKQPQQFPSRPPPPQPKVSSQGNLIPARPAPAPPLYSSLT

[2] = target: Disintegrin and metalloproteinase domain-containing protein 10 (Homo sapiens, UniProt O14672); assay: Inhibition of ADAM10
Sequence of Disintegrin and metalloproteinase domain-containing protein 10 (O14672 whole entry, the tested form may be a part): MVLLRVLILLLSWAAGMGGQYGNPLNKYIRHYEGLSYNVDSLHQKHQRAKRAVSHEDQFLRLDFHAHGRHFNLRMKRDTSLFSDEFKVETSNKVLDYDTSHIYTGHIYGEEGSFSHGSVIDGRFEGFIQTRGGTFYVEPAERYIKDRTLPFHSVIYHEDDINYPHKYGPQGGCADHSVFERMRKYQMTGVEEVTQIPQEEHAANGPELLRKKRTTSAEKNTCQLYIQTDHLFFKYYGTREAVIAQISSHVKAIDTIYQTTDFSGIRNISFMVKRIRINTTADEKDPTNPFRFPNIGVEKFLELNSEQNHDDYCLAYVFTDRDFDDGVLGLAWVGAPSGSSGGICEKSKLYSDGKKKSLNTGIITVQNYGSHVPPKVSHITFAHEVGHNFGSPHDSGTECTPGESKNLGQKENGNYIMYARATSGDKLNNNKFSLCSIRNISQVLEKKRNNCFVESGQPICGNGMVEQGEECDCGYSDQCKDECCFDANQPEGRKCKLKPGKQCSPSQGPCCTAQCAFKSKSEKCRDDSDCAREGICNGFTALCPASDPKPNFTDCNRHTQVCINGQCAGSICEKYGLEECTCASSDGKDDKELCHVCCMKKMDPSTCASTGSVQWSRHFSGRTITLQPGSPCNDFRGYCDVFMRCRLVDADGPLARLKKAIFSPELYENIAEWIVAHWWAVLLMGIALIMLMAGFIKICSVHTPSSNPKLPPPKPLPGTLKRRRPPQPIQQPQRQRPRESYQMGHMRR

[3] = target: Disintegrin and metalloproteinase domain-containing protein 17 (Homo sapiens, UniProt P78536)
Sequence of Disintegrin and metalloproteinase domain-containing protein 17 (P78536 whole entry, the tested form may be a part): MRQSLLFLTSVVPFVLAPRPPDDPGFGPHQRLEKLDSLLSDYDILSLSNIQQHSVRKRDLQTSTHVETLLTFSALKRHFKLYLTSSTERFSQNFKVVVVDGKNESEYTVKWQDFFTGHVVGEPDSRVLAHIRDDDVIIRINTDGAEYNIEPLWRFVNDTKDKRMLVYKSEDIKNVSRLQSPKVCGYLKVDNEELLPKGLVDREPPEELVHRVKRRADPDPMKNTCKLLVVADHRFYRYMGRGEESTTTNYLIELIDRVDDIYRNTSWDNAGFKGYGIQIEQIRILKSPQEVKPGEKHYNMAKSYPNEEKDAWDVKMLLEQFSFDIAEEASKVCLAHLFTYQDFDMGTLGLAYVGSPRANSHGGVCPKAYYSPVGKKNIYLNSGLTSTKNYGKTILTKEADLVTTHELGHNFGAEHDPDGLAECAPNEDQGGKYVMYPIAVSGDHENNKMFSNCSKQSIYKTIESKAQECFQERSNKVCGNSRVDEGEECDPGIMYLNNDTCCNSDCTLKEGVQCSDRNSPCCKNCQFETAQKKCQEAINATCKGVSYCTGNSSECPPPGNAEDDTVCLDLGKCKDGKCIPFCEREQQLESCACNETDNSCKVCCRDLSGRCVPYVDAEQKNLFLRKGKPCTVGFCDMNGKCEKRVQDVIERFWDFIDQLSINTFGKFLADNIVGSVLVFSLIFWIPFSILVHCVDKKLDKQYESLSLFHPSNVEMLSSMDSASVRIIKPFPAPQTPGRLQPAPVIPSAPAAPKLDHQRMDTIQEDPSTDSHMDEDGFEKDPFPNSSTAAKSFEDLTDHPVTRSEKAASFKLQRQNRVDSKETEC

| IC50 [3] | Structure (SMILES) | IC50 [1] | IC50 [2] |
| --- | --- | --- | --- |
|  | CC[C@H](C)[C@H](NC(=O)C[C@H](O)[C@H](CC(C)C)NC(=O)[C@H](CCC(N)=O)N(C)C(=O)[C@H](CC(C)C)NC(=O)[C@H](O)[C@@H](C)CC)C(=O)NCC(=O)N(C)[C@H](Cc1ccccc1)C(=O)N1CCC[C@H]1C(=O)OC [GRASSYSTATIN C] ({Hmp(2R,3S)}-L[NMeQ][Sta]IG[dNMeF]P-OMe) | > 100000 nM | > 100000 nM |
| 13.1 nM | CNC(=O)[C@H](Cc1c[nH]c2ccccc12)NC(=O)[C@@H](CC(=O)NO)CC(C)C [ILOMASTAT] | 56.3 nM | 263 nM |
